# Columns and labels:
# Type in all cases: in vivo
# [1] = tested on: Italian ryegrass (Lolium multiflorum); test: Test A preemergence, directed soil spray; conditions: approx. 10 days
# Source text: (§1) Seeds of plant species selected from barnyardgrass (Echinochloa crus-galli), kochia (Kochia scoparia), ragweed (common ragweed, Ambrosia elatior), Italian ryegrass (Lolium multiflorum), giant foxtail (Setaria faberii), and pigweed (Amaranthus retroflexus) were planted into a blend of loam soil and sand and treated preemergence with a directed soil spray using test chemicals formulated in a non-phytotoxic solvent mixture which included a surfactant. At the same time, plants selected from these weed species and also wheat (Triticum aestivum), corn (Zea mays), blackgrass (Alopecurus myosuroides), and galium (catchweed bedstraw, Galium aparine) were planted in pots containing the same blend of loam soil and sand and treated with postemergence applications of test chemicals formulated in the same manner. Plants ranged in height from 2 to 10 cm and were in the one- to two-leaf stage for the postemergence treatment. Treated plants and untreated controls were maintained in a greenhouse for approximately 10 days, after which time all treated plants were compared to untreated controls and visually evaluated for injury. Plant response ratings, summarized in Table A, are based on a 0 to 100 scale where 0 is no effect and 100 is complete control. A dash (-) response means no test result.
# [2] = tested on: barnyardgrass (Echinochloa crus-galli); test: Test A preemergence, directed soil spray; conditions: approx. 10 days
# Source text: as §1
# [3] = tested on: giant foxtail (Setaria faberii); test: Test A preemergence, directed soil spray; conditions: approx. 10 days
# Source text: as §1
# [4] = tested on: kochia (Kochia scoparia); test: Test A preemergence, directed soil spray; conditions: approx. 10 days
# Source text: as §1
# [5] = tested on: pigweed (Amaranthus retroflexus); test: Test A preemergence, directed soil spray; conditions: approx. 10 days
# Source text: as §1
# [6] = tested on: ragweed (common ragweed, Ambrosia elatior); test: Test A preemergence, directed soil spray; conditions: approx. 10 days
# Source text: as §1
# [7] = tested on: Italian ryegrass (Lolium multiflorum); test: Test A postemergence application; conditions: approx. 10 days
# Source text: as §1
# [8] = tested on: barnyardgrass (Echinochloa crus-galli); test: Test A postemergence application; conditions: approx. 10 days
# Source text: as §1
# [9] = tested on: blackgrass (Alopecurus myosuroides); test: Test A postemergence application; conditions: approx. 10 days
# Source text: as §1
# [10] = tested on: corn (Zea mays); test: Test A postemergence application; conditions: approx. 10 days
# Source text: as §1
# [11] = tested on: galium (catchweed bedstraw, Galium aparine); test: Test A postemergence application; conditions: approx. 10 days
# Source text: as §1
# [12] = tested on: giant foxtail (Setaria faberii); test: Test A postemergence application; conditions: approx. 10 days
# Source text: as §1
# [13] = tested on: kochia (Kochia scoparia); test: Test A postemergence application; conditions: approx. 10 days
# Source text: as §1
# [14] = tested on: pigweed (Amaranthus retroflexus); test: Test A postemergence application; conditions: approx. 10 days
# Source text: as §1
# [15] = tested on: ragweed (common ragweed, Ambrosia elatior); test: Test A postemergence application; conditions: approx. 10 days
# Source text: as §1
# [16] = tested on: wheat (Triticum aestivum); test: Test A postemergence application; conditions: approx. 10 days
# Source text: as §1
# [17] = tested on: barnyardgrass (Echinochloa crus-galli); test: Test B flooded paddy test; set-up: key: 0 = no effect, 100 = complete control; conditions: Flood, 250 g ai/ha applied to paddy water at 2-leaf stage; visually evaluated after 13 to 15 days; scale 0 (no effect) to 100 (complete control)
# Procedure: (§2) Plant species in the flooded paddy test selected from rice (Oryza sativa), sedge, umbrella (small-flower umbrella sedge, Cyperus difformis), ducksalad (Heteranthera limosa), and barnyardgrass (Echinochloa crus-galli) were grown to the 2-leaf stage for testing. At time of treatment, test pots were flooded to 3 cm above the soil surface, treated by application of test compounds directly to the paddy water, and then maintained at that water depth for the duration of the test. Treated plants and controls were maintained in a greenhouse for 13 to 15 days, after which time all species were compared to controls and visually evaluated. Plant response ratings, summarized in Table B, are based on a scale of 0 to 100 where 0 is no effect and 100 is complete control. A dash (-) response means no test result.
# [18] = tested on: ducksalad (Heteranthera limosa); test: Test B flooded paddy test; set-up: key: 0 = no effect, 100 = complete control; conditions: Flood, 250 g ai/ha applied to paddy water at 2-leaf stage; visually evaluated after 13 to 15 days; scale 0 (no effect) to 100 (complete control)
# Procedure: as §2
# [19] = tested on: rice (Oryza sativa); test: Test B flooded paddy test; set-up: key: 0 = no effect, 100 = complete control; conditions: Flood, 250 g ai/ha applied to paddy water at 2-leaf stage; visually evaluated after 13 to 15 days; scale 0 (no effect) to 100 (complete control)
# Procedure: as §2
# [20] = tested on: sedge, umbrella (small-flower umbrella sedge, Cyperus difformis); test: Test B flooded paddy test; set-up: key: 0 = no effect, 100 = complete control; conditions: Flood, 250 g ai/ha applied to paddy water at 2-leaf stage; visually evaluated after 13 to 15 days; scale 0 (no effect) to 100 (complete control)
# Procedure: as §2
smiles,measurement,setting,value
"O=c1cccc(Oc2ncc(Cl)cn2)n1-c1cccc(C(F)(F)F)c1 [Compound 2, 6-[(5-chloro-2-pyrimidinyl)oxy]-1-[3-(trifluoromethyl)phenyl]-2(1H)-pyridinone]","Plant response rating (0 to 100 scale, 0 no effect, 100 complete control), Ryegrass, Italian",[1]; 125 g ai/ha,0
same,"Plant response rating (0 to 100 scale, 0 no effect, 100 complete control), Ryegrass, Italian",[1]; 500 g ai/ha,0
same,"Plant response rating (0 to 100 scale, 0 no effect, 100 complete control), Barnyardgrass",[2]; 125 g ai/ha,0
same,"Plant response rating (0 to 100 scale, 0 no effect, 100 complete control), Barnyardgrass",[2]; 500 g ai/ha,0
same,"Plant response rating (0 to 100 scale, 0 no effect, 100 complete control), Foxtail, Giant",[3]; 125 g ai/ha,0
same,"Plant response rating (0 to 100 scale, 0 no effect, 100 complete control), Foxtail, Giant",[3]; 500 g ai/ha,90
same,"Plant response rating (0 to 100 scale, 0 no effect, 100 complete control), Kochia",[4]; 125 g ai/ha,0
same,"Plant response rating (0 to 100 scale, 0 no effect, 100 complete control), Kochia",[4]; 500 g ai/ha,30
same,"Plant response rating (0 to 100 scale, 0 no effect, 100 complete control), Pigweed",[5]; 125 g ai/ha,0
same,"Plant response rating (0 to 100 scale, 0 no effect, 100 complete control), Pigweed",[5]; 500 g ai/ha,20
same,"Plant response rating (0 to 100 scale, 0 no effect, 100 complete control), Ragweed",[6]; 125 g ai/ha,0
same,"Plant response rating (0 to 100 scale, 0 no effect, 100 complete control), Ragweed",[6]; 500 g ai/ha,0
same,"Plant response rating (0 to 100 scale, 0 no effect, 100 complete control), Ryegrass, Italian",[7]; 125 g ai/ha,0
same,"Plant response rating (0 to 100 scale, 0 no effect, 100 complete control), Ryegrass, Italian",[7]; 500 g ai/ha,0
same,"Plant response rating (0 to 100 scale, 0 no effect, 100 complete control), Barnyardgrass",[8]; 125 g ai/ha,0
same,"Plant response rating (0 to 100 scale, 0 no effect, 100 complete control), Barnyardgrass",[8]; 500 g ai/ha,0
same,"Plant response rating (0 to 100 scale, 0 no effect, 100 complete control), Blackgrass",[9]; 125 g ai/ha,0
same,"Plant response rating (0 to 100 scale, 0 no effect, 100 complete control), Blackgrass",[9]; 500 g ai/ha,0
same,"Plant response rating (0 to 100 scale, 0 no effect, 100 complete control), Corn",[10]; 125 g ai/ha,0
same,"Plant response rating (0 to 100 scale, 0 no effect, 100 complete control), Corn",[10]; 500 g ai/ha,20
same,"Plant response rating (0 to 100 scale, 0 no effect, 100 complete control), Galium",[11]; 125 g ai/ha,20
same,"Plant response rating (0 to 100 scale, 0 no effect, 100 complete control), Galium",[11]; 500 g ai/ha,60
same,"Plant response rating (0 to 100 scale, 0 no effect, 100 complete control), Foxtail, Giant",[12]; 125 g ai/ha,0
same,"Plant response rating (0 to 100 scale, 0 no effect, 100 complete control), Foxtail, Giant",[12]; 500 g ai/ha,60
same,"Plant response rating (0 to 100 scale, 0 no effect, 100 complete control), Kochia",[13]; 125 g ai/ha,30
same,"Plant response rating (0 to 100 scale, 0 no effect, 100 complete control), Kochia",[13]; 500 g ai/ha,90
same,"Plant response rating (0 to 100 scale, 0 no effect, 100 complete control), Pigweed",[14]; 125 g ai/ha,30
same,"Plant response rating (0 to 100 scale, 0 no effect, 100 complete control), Pigweed",[14]; 500 g ai/ha,80
same,"Plant response rating (0 to 100 scale, 0 no effect, 100 complete control), Ragweed",[15]; 125 g ai/ha,0
same,"Plant response rating (0 to 100 scale, 0 no effect, 100 complete control), Ragweed",[15]; 500 g ai/ha,0
same,"Plant response rating (0 to 100 scale, 0 no effect, 100 complete control), Wheat",[16]; 125 g ai/ha,0
same,"Plant response rating (0 to 100 scale, 0 no effect, 100 complete control), Wheat",[16]; 500 g ai/ha,20
same,"Plant response rating, Barnyardgrass",[17],0
same,"Plant response rating, Ducksalad",[18],0
same,"Plant response rating, Rice",[19],0
same,"Plant response rating, Sedge, Umbrella",[20],0
